Assay results published in PubChem BioAssay AID1963979 (Molecular Pharmacology Branch, DTP, NCI, 2024).

Tested on: 361931-004-R-J1-PDC multicell spheroid viability
Test: Anticancer human tumor 361931-004-R-J1-PDC patient-derived colon adenocarcinoma cell line growth inhibition [PI3K]
Conditions: for IC50: curve of first compound; for viability, T/C: stronger effect = lower value
In short: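 Tumor cells were combined with HUVEC and MSCs into spheroids, then dosed with PI3K-inhibitor combinations over half-log ranges capped near clinical Cmax or 10 microM.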

[1] = second compound 0.0316 µM, first compound 0.0316 µM
[2] = second compound 0.0316 µM, first compound 0.1 µM
[3] = second compound 0.1 µM, first compound 0.0316 µM
[4] = second compound 0.1 µM, first compound 0.1 µM
[5] = second compound 0.316 µM, first compound 0.0316 µM
[6] = second compound 0.316 µM, first compound 0.1 µM
[7] = second compound 1 µM, first compound 0.0316 µM
[8] = second compound 1 µM, first compound 0.1 µM
[9] = second compound 3.16 µM, first compound 0.0316 µM
[10] = second compound 3.16 µM, first compound 0.1 µM
[11] = second compound 10 µM, first compound 0.0316 µM
[12] = second compound 10 µM, first compound 0.1 µM
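Note: spheroids exposed to agents for seven days before readout.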

In the case of `CC(=O)c1c(C)c2cnc(Nc3ccc(N4CCNCC4)cn3)nc2n(C2CCCC2)c1=O` + Cc1nc(NC(=O)N2CCCC2C(N)=O)sc1-c1ccnc(C(C)(C)C(F)(F)F)c1, the IC50 (second compound 0.0316 µM) is reported as over 100 nM, the IC50 (second compound 0.1 µM) is reported as over 100 nM and the IC50 (second compound 0.316 µM) is reported as over 100 nM. It also gave an IC50 (second compound 1 µM) of over 100 nM, an IC50 (second compound 3.16 µM) of over 100 nM and an IC50 (second compound 10 µM) of 56.4 nM. It also gave a viability, T/C (second compound 0.0316 µM, first compound 0.000316 µM) of 110%, a viability, T/C (second compound 0.0316 µM, first compound 0.001 µM) of 105% and a viability, T/C (second compound 0.0316 µM, first compound 0.00316 µM) of 101%. For the same molecule, the viability, T/C (second compound 0.0316 µM, first compound 0.01 µM) was 98.7%, the viability, T/C [1] was 99.6% and the viability, T/C [2] was 78.2%. For the same molecule, the viability, T/C (second compound 0.1 µM, first compound 0.000316 µM) was 109%, the viability, T/C (second compound 0.1 µM, first compound 0.001 µM) was 106% and the viability, T/C (second compound 0.1 µM, first compound 0.00316 µM) was 96.8%. The viability, T/C (second compound 0.1 µM, first compound 0.01 µM) was 94.8%, the viability, T/C [3] was 90.7% and the viability, T/C [4] was 81.5%. The viability, T/C (second compound 0.316 µM, first compound 0.000316 µM) was 106%, the viability, T/C (second compound 0.316 µM, first compound 0.001 µM) was 96.6% and the viability, T/C (second compound 0.316 µM, first compound 0.00316 µM) was 104%. It also gave a viability, T/C (second compound 0.316 µM, first compound 0.01 µM) of 97.8%, a viability, T/C [5] of 83.1% and a viability, T/C [6] of 83%. For the same molecule, the viability, T/C (second compound 1 µM, first compound 0.000316 µM) was 97%, the viability, T/C (second compound 1 µM, first compound 0.001 µM) was 93.3% and the viability, T/C (second compound 1 µM, first compound 0.00316 µM) was 84.9%. The viability, T/C (second compound 1 µM, first compound 0.01 µM) was 91.9%, the viability, T/C [7] was 90.2% and the viability, T/C [8] was 65.2%. The viability, T/C (second compound 3.16 µM, first compound 0.000316 µM) was 80.7%, the viability, T/C (second compound 3.16 µM, first compound 0.001 µM) was 70.6% and the viability, T/C (second compound 3.16 µM, first compound 0.00316 µM) was 76.5%. It also gave a viability, T/C (second compound 3.16 µM, first compound 0.01 µM) of 77.7%, a viability, T/C [9] of 65.7% and a viability, T/C [10] of 52.6%. The viability, T/C (second compound 10 µM, first compound 0.000316 µM) was 66.7%, the viability, T/C (second compound 10 µM, first compound 0.001 µM) was 75.9% and the viability, T/C (second compound 10 µM, first compound 0.00316 µM) was 65%. For the same molecule, the viability, T/C (second compound 10 µM, first compound 0.01 µM) was 58.4%, the viability, T/C [11] was 56.5% and the viability, T/C [12] was 45.1%.
For `CNC(=O)c1ccc(N2C(=S)N(c3ccc(C#N)c(C(F)(F)F)c3)C(=O)C2(C)C)cc1F` + Cc1nc(NC(=O)N2CCCC2C(N)=O)sc1-c1ccnc(C(C)(C)C(F)(F)F)c1, the IC50 (second compound 0.0316 µM) was over 10000 nM, the IC50 (second compound 0.1 µM) was over 10000 nM and the IC50 (second compound 0.316 µM) was over 10000 nM. It also gave an IC50 (second compound 1 µM) of over 10000 nM, an IC50 (second compound 3.16 µM) of over 10000 nM and an IC50 (second compound 10 µM) of over 10000 nM. It also gave a viability, T/C [1] of 113%, a viability, T/C [2] of 101% and a viability, T/C (second compound 0.0316 µM, first compound 0.316 µM) of 91%. The viability, T/C (second compound 0.0316 µM, first compound 1 µM) was 90.8%, the viability, T/C (second compound 0.0316 µM, first compound 3.16 µM) was 98% and the viability, T/C (second compound 0.0316 µM, first compound 10 µM) was 99.6%. The viability, T/C [3] was 106%, the viability, T/C [4] was 101% and the viability, T/C (second compound 0.1 µM, first compound 0.316 µM) was 87.4%. For the same molecule, the viability, T/C (second compound 0.1 µM, first compound 1 µM) was 94.4%, the viability, T/C (second compound 0.1 µM, first compound 3.16 µM) was 93.3% and the viability, T/C (second compound 0.1 µM, first compound 10 µM) was 86.6%. It also gave a viability, T/C [5] of 99.2%, a viability, T/C [6] of 90.8% and a viability, T/C (second compound 0.316 µM, first compound 0.316 µM) of 100%. The viability, T/C (second compound 0.316 µM, first compound 1 µM) was 104%, the viability, T/C (second compound 0.316 µM, first compound 3.16 µM) was 104% and the viability, T/C (second compound 0.316 µM, first compound 10 µM) was 95.8%. For the same molecule, the viability, T/C [7] was 94.1%, the viability, T/C [8] was 93.5% and the viability, T/C (second compound 1 µM, first compound 0.316 µM) was 80%. The viability, T/C (second compound 1 µM, first compound 1 µM) was 94.5%, the viability, T/C (second compound 1 µM, first compound 3.16 µM) was 94.1% and the viability, T/C (second compound 1 µM, first compound 10 µM) was 85.6%. The viability, T/C [9] was 83.2%, the viability, T/C [10] was 82.9% and the viability, T/C (second compound 3.16 µM, first compound 0.316 µM) was 91.3%. The viability, T/C (second compound 3.16 µM, first compound 1 µM) was 84.2%, the viability, T/C (second compound 3.16 µM, first compound 3.16 µM) was 98% and the viability, T/C (second compound 3.16 µM, first compound 10 µM) was 70.3%. It also gave a viability, T/C [11] of 70.2%, a viability, T/C [12] of 67.1% and a viability, T/C (second compound 10 µM, first compound 0.316 µM) of 59.3%. It also gave a viability, T/C (second compound 10 µM, first compound 1 µM) of 69.1%, a viability, T/C (second compound 10 µM, first compound 3.16 µM) of 76.1% and a viability, T/C (second compound 10 µM, first compound 10 µM) of 45.2%.
Molecule `Cn1cnc2c(F)c(Nc3ccc(Br)cc3Cl)c(C(=O)NOCCO)cc21` + Cc1nc(NC(=O)N2CCCC2C(N)=O)sc1-c1ccnc(C(C)(C)C(F)(F)F)c1 has an IC50 (second compound 0.0316 µM) of over 3000 nM, an IC50 (second compound 0.1 µM) of 2120 nM and an IC50 (second compound 0.316 µM) of 1170 nM. It also gave an IC50 (second compound 1 µM) of 741 nM, an IC50 (second compound 3.16 µM) of 204 nM and an IC50 (second compound 10 µM) of 30.9 nM. For the same molecule, the viability, T/C (second compound 0.0316 µM, first compound 0.00949 µM) was 96.2%, the viability, T/C (second compound 0.0316 µM, first compound 0.03 µM) was 95.8% and the viability, T/C (second compound 0.0316 µM, first compound 0.0949 µM) was 82.2%. It also gave a viability, T/C (second compound 0.0316 µM, first compound 0.3 µM) of 78.8%, a viability, T/C (second compound 0.0316 µM, first compound 0.949 µM) of 75.8% and a viability, T/C (second compound 0.0316 µM, first compound 3 µM) of 48.3%. The viability, T/C (second compound 0.1 µM, first compound 0.00949 µM) was 107%, the viability, T/C (second compound 0.1 µM, first compound 0.03 µM) was 106% and the viability, T/C (second compound 0.1 µM, first compound 0.0949 µM) was 83.7%. The viability, T/C (second compound 0.1 µM, first compound 0.3 µM) was 84.5%, the viability, T/C (second compound 0.1 µM, first compound 0.949 µM) was 70.4% and the viability, T/C (second compound 0.1 µM, first compound 3 µM) was 41%. The viability, T/C (second compound 0.316 µM, first compound 0.00949 µM) was 103%, the viability, T/C (second compound 0.316 µM, first compound 0.03 µM) was 89.5% and the viability, T/C (second compound 0.316 µM, first compound 0.0949 µM) was 79.2%. The viability, T/C (second compound 0.316 µM, first compound 0.3 µM) was 74%, the viability, T/C (second compound 0.316 µM, first compound 0.949 µM) was 57.1% and the viability, T/C (second compound 0.316 µM, first compound 3 µM) was 29.7%. The viability, T/C (second compound 1 µM, first compound 0.00949 µM) was 95.9%, the viability, T/C (second compound 1 µM, first compound 0.03 µM) was 92.7% and the viability, T/C (second compound 1 µM, first compound 0.0949 µM) was 75.6%. It also gave a viability, T/C (second compound 1 µM, first compound 0.3 µM) of 68%, a viability, T/C (second compound 1 µM, first compound 0.949 µM) of 44.4% and a viability, T/C (second compound 1 µM, first compound 3 µM) of 27.5%. For the same molecule, the viability, T/C (second compound 3.16 µM, first compound 0.00949 µM) was 82.7%, the viability, T/C (second compound 3.16 µM, first compound 0.03 µM) was 77.6% and the viability, T/C (second compound 3.16 µM, first compound 0.0949 µM) was 61.9%. The viability, T/C (second compound 3.16 µM, first compound 0.3 µM) was 40%, the viability, T/C (second compound 3.16 µM, first compound 0.949 µM) was 29.3% and the viability, T/C (second compound 3.16 µM, first compound 3 µM) was 6.45%. The viability, T/C (second compound 10 µM, first compound 0.00949 µM) was 59%, the viability, T/C (second compound 10 µM, first compound 0.03 µM) was 48.4% and the viability, T/C (second compound 10 µM, first compound 0.0949 µM) was 35%. For the same molecule, the viability, T/C (second compound 10 µM, first compound 0.3 µM) was 12.5%, the viability, T/C (second compound 10 µM, first compound 0.949 µM) was 4.2% and the viability, T/C (second compound 10 µM, first compound 3 µM) was 1.47%.
